Results from PubChem BioAssay (NCI).
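GI50 is the concentration that inhibits growth by half. The concentration for full growth arrest is given as TGI.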

Experiments:
Assay in all cases: NCI anticancer screen, dose series, 384-well format
[1] = tested on: M14 melanoma
[2] = tested on: UO-31 renal
[3] = tested on: IGROV1 ovarian
[4] = tested on: NCI-H522 lung
[5] = tested on: HCT-15 colon
[6] = tested on: CAKI-1 renal
[7] = tested on: DU-145 prostate
[8] = tested on: MCF7 breast
[9] = tested on: PC-3 prostate
[10] = tested on: MDA-MB-468 breast
[11] = tested on: MDA-MB-435 melanoma
[12] = tested on: UACC-62 melanoma
[13] = tested on: NCI-H23 lung
[14] = tested on: HL-60(TB) leukemia
[15] = tested on: SF-295 CNS
[16] = tested on: RPMI-8226 leukemia
[17] = tested on: MALME-3M melanoma
[18] = tested on: SK-MEL-5 melanoma
[19] = tested on: U251 glioblastoma
[20] = tested on: UACC-257 melanoma
[21] = tested on: OVCAR-3 ovarian
[22] = tested on: MOLT-4 leukemia
[23] = tested on: NCI-H226 lung
[24] = tested on: KM12 colon
[25] = tested on: CCRF-CEM leukemia
[26] = tested on: HS 578T breast
[27] = tested on: NCI-H322M lung
[28] = tested on: HCC-2998 colon
[29] = tested on: HOP-92 NSCLC

Q: For `CC(CN(C)C)S(=O)(=O)c1ccc(-c2cnc(N)c(C(=O)Nc3ccccc3)n2)cc1` (stereo not drawn), which GI50 [1] is on record?
A: The GI50 was 1730 nM.

Q: What about the TGI [1] of the same compound?
A: Its TGI is 10700 nM.

Q: And the GI50 [2]?
A: The GI50 was 3640 nM.

Q: What about the TGI [2] of the same compound?
A: The TGI was greater than 100000 nM.

Q: And the GI50 [3]?
A: The GI50 was 1990 nM.

Q: And the TGI [3]?
A: The TGI was 5270 nM.

Q: And the GI50 [4]?
A: Its GI50 is 10300 nM.

Q: What about the TGI [4] of the same compound?
A: Its TGI is 22300 nM.

Q: What about the GI50 [5] of the same compound?
A: The GI50 was 1030 nM.

Q: What about the TGI [5] of the same compound?
A: The TGI was 2430 nM.

Q: What about the GI50 [6] of the same compound?
A: The GI50 was 2770 nM.

Q: What about the TGI [6] of the same compound?
A: The TGI was 14700 nM.

Q: And the GI50 [7]?
A: The GI50 was 2900 nM.

Q: What about the TGI [7] of the same compound?
A: The TGI was 13400 nM.

Q: And the GI50 [8]?
A: Its GI50 is 844 nM.

Q: What about the TGI [8] of the same compound?
A: Its TGI is 13400 nM.

Q: And the GI50 [9]?
A: The GI50 was 5520 nM.

Q: What about the TGI [9] of the same compound?
A: The TGI was 24400 nM.

Q: And the GI50 [10]?
A: The GI50 was 412 nM.

Q: What about the TGI [10] of the same compound?
A: The TGI was 1340 nM.

Q: And the GI50 [11]?
A: Its GI50 is 3820 nM.

Q: And the TGI [11]?
A: The TGI was 16100 nM.

Q: What about the GI50 [12] of the same compound?
A: The GI50 was 2140 nM.

Q: What about the TGI [12] of the same compound?
A: The TGI was 9840 nM.

Q: And the GI50 [13]?
A: Its GI50 is 1070 nM.

Q: What about the TGI [13] of the same compound?
A: The TGI was 4510 nM.

Q: And the GI50 [14]?
A: Its GI50 is 1490 nM.

Q: What about the TGI [14] of the same compound?
A: Its TGI is 2830 nM.

Q: What about the GI50 [15] of the same compound?
A: The GI50 was 2850 nM.

Q: What about the TGI [15] of the same compound?
A: Its TGI is 9550 nM.

Q: And the GI50 [16]?
A: The GI50 was 1560 nM.

Q: What about the TGI [16] of the same compound?
A: The TGI was 4480 nM.

Q: What about the GI50 [17] of the same compound?
A: The GI50 was 1810 nM.

Q: What about the TGI [17] of the same compound?
A: Its TGI is 5290 nM.

Q: What about the GI50 [18] of the same compound?
A: Its GI50 is 2270 nM.

Q: What about the TGI [18] of the same compound?
A: The TGI was 6060 nM.

Q: And the GI50 [19]?
A: Its GI50 is 2510 nM.

Q: And the TGI [19]?
A: The TGI was 12100 nM.

Q: What about the GI50 [20] of the same compound?
A: The GI50 was 1730 nM.

Q: What about the TGI [20] of the same compound?
A: Its TGI is 3350 nM.

Q: What about the GI50 [21] of the same compound?
A: The GI50 was 3040 nM.

Q: What about the TGI [21] of the same compound?
A: The TGI was 14200 nM.

Q: What about the GI50 [22] of the same compound?
A: The GI50 was 515 nM.

Q: And the TGI [22]?
A: Its TGI is 1620 nM.

Q: And the GI50 [23]?
A: The GI50 was 3250 nM.

Q: What about the TGI [23] of the same compound?
A: Its TGI is 12900 nM.

Q: What about the GI50 [24] of the same compound?
A: The GI50 was 2790 nM.

Q: And the TGI [24]?
A: The TGI was 12300 nM.

Q: What about the GI50 [25] of the same compound?
A: Its GI50 is 519 nM.

Q: And the TGI [25]?
A: The TGI was 1660 nM.

Q: What about the GI50 [26] of the same compound?
A: Its GI50 is 837 nM.

Q: What about the TGI [26] of the same compound?
A: Its TGI is 3170 nM.

Q: And the GI50 [27]?
A: Its GI50 is 1100 nM.

Q: What about the TGI [27] of the same compound?
A: Its TGI is 15500 nM.

Q: What about the GI50 [28] of the same compound?
A: The GI50 was 314 nM.

Q: What about the TGI [28] of the same compound?
A: Its TGI is 937 nM.

Q: What about the GI50 [29] of the same compound?
A: The GI50 was 1400 nM.

Q: What about the TGI [29] of the same compound?
A: The TGI was 10800 nM.
